Molecular target: T1, LARP6 (Homo sapiens, UniProt Q9BRS8)
T1 construct: LARP6*, amino-acids 72–303, His-tag
T1 sequence (Q9BRS8 72-303): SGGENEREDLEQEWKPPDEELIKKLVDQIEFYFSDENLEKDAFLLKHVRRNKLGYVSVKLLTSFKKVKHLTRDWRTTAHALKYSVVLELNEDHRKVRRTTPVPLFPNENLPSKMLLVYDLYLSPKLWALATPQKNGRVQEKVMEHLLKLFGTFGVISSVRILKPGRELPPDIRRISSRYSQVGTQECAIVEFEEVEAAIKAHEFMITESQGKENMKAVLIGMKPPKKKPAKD
Test: FP dissociation of LARP6* from fluorescein-labelled […]'SL RNA; intrinsic tryptophan fluorescence quenching of LARP6*; gel mobility shift with extracts of treated cells
Type: binding

IC50: ~15 µM
SMILES: Cc1cccn2c(=O)c3cc(C(=O)Nc4cccnc4)n(C)c3nc12 [C9]

From paper PMC6344531, “Discovery and evaluation of inhibitor of LARP6 as specific antifibrotic compound” (Scientific Reports, 2019)
